Test results reported in ChEMBL document CHEMBL1156292, “Zwittermicin A: synthesis of analogs and structure-activity studies” (2010).
Values after ≈ are worked out from the molar mass of the structure shown.

Tests used:
Format in all cases: functional
Candida albicans [1] = assay: Antifungal activity against Candida albicans ATCC 14503 by disk diffusion assay
Candida albicans [2] = assay: Antifungal activity against Candida albicans UCDFR1 by disk diffusion assay
Nakaseomyces glabratus = assay: Antifungal activity against Candida glabrata by disk diffusion assay
Pichia kudriavzevii = assay: Antifungal activity against Candida krusei by disk diffusion assay
Candida albicans [3] = assay: Antifungal activity against Candida albicans 96-489 by disk diffusion assay
Erwinia amylovora = assay: Antibacterial activity against Erwinia amylovora by disk diffusion assay
Phytophthora infestans = assay: Antifungal activity against Phytophthora infestans by disk diffusion assay
[4] = system: Pectobacterium carotovorum; assay: Antibacterial activity against Erwinia carotovora by disk diffusion assay

Row | SMILES | MIC (Candida albicans [1]) | MIC (Candida albicans [2]) | MIC (Nakaseomyces glabratus) | MIC (Pichia kudriavzevii) | MIC (Candida albicans [3]) | MIC (Erwinia amylovora) | MIC (Phytophthora infestans) | MIC [4]
1 | N[C@@H](CO)[C@H](O)C[C@@H](O)[C@@H](N)CO | > 128 µg/mL | > 128 µg/mL | > 128 µg/mL | > 128 µg/mL | > 128 µg/mL | – | – | –
2 | N[C@H](CO)[C@@H](O)C[C@H](O)[C@@H](N)CO | > 128 µg/mL | > 128 µg/mL | > 128 µg/mL | > 128 µg/mL | > 128 µg/mL | – | – | –
3 | N[C@@H](CO)[C@@H](O)C[C@H](O)[C@@H](N)CO | > 128 µg/mL | > 128 µg/mL | > 128 µg/mL | > 128 µg/mL | > 128 µg/mL | – | – | –
4 | N[C@H](CO)[C@@H](O)C[C@H](O)[C@H](N)CO | > 128 µg/mL | > 128 µg/mL | > 128 µg/mL | > 128 µg/mL | > 128 µg/mL | > 128 µg/mL | > 32 µg/mL | > 128 µg/mL
5 | NC(=O)NC[C@H](NC(=O)[C@@H](O)[C@H](O)[C@H](N)CO)C(N)=O | > 128 µg/mL | > 128 µg/mL | > 128 µg/mL | > 128 µg/mL | > 128 µg/mL | > 128 µg/mL | > 32 µg/mL | > 128 µg/mL
6 | NC(=O)NC[C@@H](NC(=O)[C@@H](O)[C@H](O)[C@H](N)CO)C(N)=O | > 128 µg/mL | > 128 µg/mL | > 128 µg/mL | > 128 µg/mL | > 128 µg/mL | > 128 µg/mL | > 32 µg/mL | > 128 µg/mL
7 | N[C@@H](CO)[C@H](O)C[C@H](O)[C@@H](N)CO | > 128 µg/mL | > 128 µg/mL | > 128 µg/mL | > 128 µg/mL | > 128 µg/mL | – | – | –
8 | N[C@H](CO)[C@H](O)C[C@H](O)[C@@H](N)CO | > 128 µg/mL | > 128 µg/mL | > 128 µg/mL | > 128 µg/mL | > 128 µg/mL | – | – | –
9 | NC(=O)NC[C@H](NC(=O)[C@H](O)[C@@H](O)[C@@H](N)[C@@H](O)C[C@H](O)[C@H](N)CO)C(N)=O | > 128 µg/mL | > 128 µg/mL | 59.5 µg/mL (≈ 150 µM) | > 128 µg/mL | 55.7 µg/mL (≈ 141 µM) | 18.8 µg/mL (≈ 47.4 µM) | > 32 µg/mL | 22.2 µg/mL (≈ 56 µM)
10 | NC(=O)NC[C@H](NC(=O)[C@@H](O)[C@H](O)[C@H](N)[C@H](O)C[C@@H](O)[C@@H](N)CO)C(N)=O | > 128 µg/mL | > 128 µg/mL | > 128 µg/mL | > 128 µg/mL | > 128 µg/mL | > 128 µg/mL | > 32 µg/mL | > 128 µg/mL
11 | NC(=O)NC[C@H](NC(=O)[C@H](O)[C@@H](O)[C@@H](N)[C@@H](O)C[C@@H](O)[C@@H](N)CO)C(N)=O | > 128 µg/mL | > 128 µg/mL | > 128 µg/mL | > 128 µg/mL | > 128 µg/mL | > 128 µg/mL | > 32 µg/mL | > 128 µg/mL
12 | N[C@H](CO)[C@H](O)C[C@H](O)[C@H](N)CO | > 128 µg/mL | > 128 µg/mL | > 128 µg/mL | > 128 µg/mL | > 128 µg/mL | – | – | –
13 | NC(=O)NC[C@@H](NC(=O)[C@H](O)[C@@H](O)[C@@H](N)[C@@H](O)C[C@@H](O)[C@@H](N)CO)C(N)=O | > 128 µg/mL | > 128 µg/mL | > 128 µg/mL | > 128 µg/mL | > 128 µg/mL | > 128 µg/mL | > 32 µg/mL | > 128 µg/mL
14 | NC(=O)NC[C@@H](NC(=O)[C@@H](O)[C@H](O)[C@H](N)[C@H](O)C[C@@H](O)[C@@H](N)CO)C(N)=O [ENT-ZWITTERMICIN A] | > 128 µg/mL | > 128 µg/mL | > 128 µg/mL | > 128 µg/mL | > 128 µg/mL | > 128 µg/mL | > 32 µg/mL | > 128 µg/mL
